Source: patent US20240301319A1, “PERFUMING COMPOSITIONS” (FIRMNICH SA, priority 2017, published 2024)

Legend:
[1] = Odor threshold and odor value of perfuming compounds (Tables 4 to 10)
[2] = Volatility of perfuming compounds (Tables 4 to 10), with top/middle/bottom note type; assay type: physicochemical
How it was run: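 Volatility is expressed in μg/l in air. Top notes are 70,000 to 100 μg/l, middle notes 99 to 50 μg/l, and bottom notes 49 to 0.1 μg/l. Compounds are grouped by olfactive family: watery, green, fruity, citrus, sweet, gourmand and woody.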

[3] = perfuming compounds having a green note
[4] = Table 6, perfuming compounds having a fruity note
[5] = Table 6, perfuming compounds having a fruity note, note type by volatility
[6] = note type (Top/Middle/Bottom) by volatility, perfuming compounds having a green note
[7] = Table 4, watery note, equals volatility divided by odor threshold
[8] = Table 7, citrus note, equals volatility divided by odor threshold
[9] = Table 4, watery note, top, middle or bottom note
[10] = Table 7, citrus note, top, middle or bottom note
[11] = Table 10, perfuming compounds having a woody note, note type by volatility
[12] = Table 8, perfuming compounds having a sweet note
[13] = Table 8, perfuming compounds having a sweet note, note type by volatility
[14] = Table 9, perfuming compounds having a gourmand note, note type by volatility

Molecule | Volatility [2, 4] [μg/l air] | Type [2, 6] | Volatility (μg/l air) [2, 3] [μg/l air] | Odor Threshold (μg/l air) [1, 3] [μg/l air] | Type [2, 5] | Odor Threshold [1, 4] [μg/l air] | Odor Value [1, 4] | other results
3-(3,3-dimethyl-2,3-dihydro-1H-inden-5-yl)propanal (A) + 3-(1,1-dimethyl-2,3-dihydro-1H-inden-4-yl)propanal (B) + 3-(1,1-dimethyl-2,3-dihydro-1H-inden-5-yl)propanal (C) | – | – | – | – | – | – | – | Odor Threshold (μg/l air) ([1]; Table 4, watery note): 4.00E−03 μg/l air; Odor Value [1, 7]: 3.42E+03; Odor Threshold (μg/l air) ([1]; Table 7, citrus note): 4.00E−03 μg/l air; Odor Value [1, 8]: 3.42E+03; Volatility (μg/l air) ([2]; Table 4, watery note): 13.68 μg/l air; Type [2, 9]: bottom (perfuming compounds having a volatility ranging from 49 to 0.1 μg/l in air are referred to as “bottom notes”); Volatility (μg/l air) ([2]; Table 7, citrus note): 13.68 μg/l air; Type [2, 10]: Bottom
(−)-(1S)-2,6,6-TRIMETHYL-BICYCLO[3.1.1]HEPT-2-ENE | – | Top | 33722.60 | 1.02E−01 | – | – | – | –
CC(=O)O[C@@H]1CC2CC[C@]1(C)C2(C)C | – | – | – | – | – | – | – | Odor Threshold ([1]; Table 10, woody note): 4.46E−02 μg/l air; Type [2, 11]: Top; Volatility ([2]; Table 10, woody note): 735.37 μg/l air
CC(CC=O)CCCC(C)(C)O (racemic) [(+−)-7-hydroxy-3,7-dimethyloctanal] | – | – | – | – | – | – | – | Odor Threshold (μg/l air) ([1]; Table 4, watery note): 6.98E−03 μg/l air; Odor Value [1, 7]: 1.84E+03; Volatility (μg/l air) ([2]; Table 4, watery note): 12.81 μg/l air; Type [2, 9]: bottom (perfuming compounds having a volatility ranging from 49 to 0.1 μg/l in air are referred to as “bottom notes”)
CC(C)CCOCCc1ccccc1 [3-METHYLBUTYL 2-PHENYLETHYL ETHER] | 110.11 | – | – | – | TOP (perfuming compounds having a volatility ranging from 70,000 to 100 μg/l in air are referred to as “top notes”) | 1.38E−02 | 7.96E+03 | Odor Threshold [1, 12]: 1.38E−02 μg/l air; Odor Value [1, 12]: 7.96E+03; Odor Threshold ([1]; Table 9, gourmand note): 1.38E−02 μg/l air; Volatility [2, 12]: 110.11 μg/l air; Type [2, 13]: Top; Volatility ([2]; Table 9, gourmand note): 110.11 μg/l air; Type [2, 14]: Top
CC1OCCC12NCCS2 (racemic) | – | – | – | – | – | – | – | Odor Threshold [1, 12]: 2.53E−06 μg/l air; Odor Value [1, 12]: 2.07E+07; Volatility [2, 12]: 52.47 μg/l air; Type [2, 13]: Middle
C/C=C/C(=O)C1C(C)=CCCC1(C)C (racemic) | – | Top | 110.53 | 1.04E−04 | TOP (perfuming compounds having a volatility ranging from 70,000 to 100 μg/l in air are referred to as “top notes”) | 1.04E−04 | – | Odor Threshold [1, 12]: 1.04E−04 μg/l air; Odor Value [1, 12]: 1.06E+06; Odor Threshold ([1]; Table 10, woody note): 1.04E−04 μg/l air; Volatility [2, 12]: 110.53 μg/l air; Type [2, 13]: Top; Type [2, 11]: Top; Volatility ([2]; Table 10, woody note): 110.53 μg/l air
CC(C)=CCCC(C)C=O (racemic) | 1889.68 | – | – | – | TOP (perfuming compounds having a volatility ranging from 70,000 to 100 μg/l in air are referred to as “top notes”) | – | – | Odor Threshold (μg/l air) ([1]; Table 4, watery note): 2.11E−04 μg/l air; Odor Value [1, 7]: 8.96E+06; Volatility (μg/l air) ([2]; Table 4, watery note): 1889.68 μg/l air; Type [2, 9]: TOP (perfuming compounds having a volatility ranging from 70,000 to 100 μg/l in air are referred to as “top notes”)
CC(C)C(=O)OCCOc1ccccc1 [2-phenoxyethyl 2-methylpropanoate] | 10.05 | Bottom | 10.05 | 3.01E−02 | Bottom | 3.01E−02 | 3.34E+02 | –
CC1CC(C)(c2ccccc2)OC(C)O1 (stereo not shown) | 113.83 | – | – | – | TOP (perfuming compounds having a volatility ranging from 70,000 to 100 μg/l in air are referred to as “top notes”) | 7.82E−03 | 1.46E+04 | –
(+−)-3-(4-hydroxy-4-methylpentyl)-3-cyclohexene-1-carbaldehyde (A) + (+−)-4-(4-hydroxy-4-methylpentyl)-3-cyclohexene-1-carbaldehyde (B) | – | – | – | – | – | – | – | Odor Threshold (μg/l air) ([1]; Table 4, watery note): 8.81E−05 μg/l air; Odor Value [1, 7]: 7.92E+03; Volatility (μg/l air) ([2]; Table 4, watery note): 0.70 μg/l air; Type [2, 9]: bottom (perfuming compounds having a volatility ranging from 49 to 0.1 μg/l in air are referred to as “bottom notes”)
CC(=O)OC(CC(C)C)CC(C)C [1-ISOBUTYL-3-METHYLBUTYL ACETATE] | 5265.61 | Top | 5265.61 | 1.62E+00 | TOP (perfuming compounds having a volatility ranging from 70,000 to 100 μg/l in air are referred to as “top notes”) | – | – | –
CCCCCC1CCCC1O (racemic) [(+−)-2-PENTYL-1-CYCLOPENTANOL] | – | – | – | – | – | – | – | Odor Threshold [1, 12]: 5.43E−03 μg/l air; Odor Value [1, 12]: 1.80E+04; Volatility [2, 12]: 97.79 μg/l air; Type [2, 13]: Middle
CCCc1ccc2c(c1)OCC(=O)CO2 [7-PROPYL-2H,4H-1,5-BENZODIOXEPIN-3-ONE] | – | Bottom | 4.85 | 6.43E−05 | – | – | – | Odor Threshold (μg/l air) ([1]; Table 4, watery note): 6.43E−05 μg/l air; Odor Value [1, 7]: 7.54E+04; Volatility (μg/l air) ([2]; Table 4, watery note): 4.85 μg/l air; Type [2, 9]: bottom (perfuming compounds having a volatility ranging from 49 to 0.1 μg/l in air are referred to as “bottom notes”)
CC1(C)CC=C(CCC=O)CC1 | – | Top | 417.92 | 2.06E−03 | – | – | – | –

The next lines start with results.

Volatility [2, 4] [μg/l air] | Type [2, 6] | Volatility (μg/l air) [2, 3] [μg/l air] | Molecule | Odor Threshold (μg/l air) [1, 3] [μg/l air] | Type [2, 5] | Odor Threshold [1, 4] [μg/l air] | Odor Value [1, 4] | other results
2316.04 | Top | 2316.04 | CCCCCCOC(C)=O [HEXYL ACETATE] | 1.32E−01 | TOP (perfuming compounds having a volatility ranging from 70,000 to 100 μg/l in air are referred to as “top notes”) | – | – | –
– | Top | 2777.63 | CCCCCCCCC=O [nonanal] | 8.14E−03 | – | – | – | Odor Threshold (μg/l air) ([1]; Table 7, citrus note): 8.14E−03 μg/l air; Odor Value [1, 8]: 3.41E+05; Volatility (μg/l air) ([2]; Table 7, citrus note): 2777.63 μg/l air; Type [2, 10]: Top
210.68 | Top | 210.68 | CC/C=C\CCOC(=O)C/C=C\CC [(3Z)-3-hexen-1-yl (3Z)-3-hexenoate] | 5.17E−02 | TOP (perfuming compounds having a volatility ranging from 70,000 to 100 μg/l in air are referred to as “top notes”) | – | – | Odor Threshold [1, 12]: 5.17E−02 μg/l air; Odor Value [1, 12]: 4.08E+03; Odor Threshold ([1]; Table 9, gourmand note): 5.17E−02 μg/l air; Volatility [2, 12]: 210.68 μg/l air; Type [2, 13]: Top; Volatility ([2]; Table 9, gourmand note): 210.68 μg/l air; Type [2, 14]: Top
1.85 | – | – | C/C=C/c1ccc(OC(C)=O)c(OC)c1 [(E)-2-METHOXY-4-(1-PROPENYL)PHENYL ACETATE] | – | Bottom | 4.08E−07 | 4.54E+06 | Odor Threshold (μg/l air) ([1]; Table 7, citrus note): 4.08E−07 μg/l air; Odor Value [1, 8]: 4.54E+06; Volatility (μg/l air) ([2]; Table 7, citrus note): 1.85 μg/l air; Type [2, 10]: Bottom
0.68 | – | – | CCCCC/C(C=O)=C\c1ccccc1 [(E)-2-PENTYL-3-PHENYL-2-PROPENAL] | – | Bottom | 3.64E−04 | 1.87E+03 | Odor Threshold (μg/l air) ([1]; Table 7, citrus note): 3.64E−04 μg/l air; Odor Value [1, 8]: 1.87E+03; Volatility (μg/l air) ([2]; Table 7, citrus note): 0.68 μg/l air; Type [2, 10]: Bottom
20.47 | – | – | CC(=O)OC/C=C/c1ccccc1 [(E)-3-PHENYL-2-PROPENYL ACETATE] | – | Bottom | 1.87E−04 | 1.10E+05 | –
20.55 | – | – | CCOC(=O)/C=C/c1ccccc1 [ETHYL (E)-3-PHENYL-2-PROPENOATE] | – | Bottom | 2.38E−05 | 8.62E+05 | –
896.72 | – | – | C=CC(C)(O)CCC=C(C)C (racemic) [(+−)-3,7-dimethyl-1,6-octadien-3-ol] | – | TOP (perfuming compounds having a volatility ranging from 70,000 to 100 μg/l in air are referred to as “top notes”) | – | – | Odor Threshold (μg/l air) ([1]; Table 7, citrus note): 8.89E−05 μg/l air; Odor Value [1, 8]: 1.01E+07; Volatility (μg/l air) ([2]; Table 7, citrus note): 896.72 μg/l air; Type [2, 10]: Top
123.21 | – | – | CC(=O)OC/C=C(/C)CCC=C(C)C [(2Z)-3,7-dimethyl-2,6-octadien-1-yl acetate] | – | TOP (perfuming compounds having a volatility ranging from 70,000 to 100 μg/l in air are referred to as “top notes”) | 6.02E−02 | 2.05E+03 | Odor Threshold (μg/l air) ([1]; Table 4, watery note): 6.02E−02 μg/l air; Odor Value [1, 7]: 2.05E+03; Volatility (μg/l air) ([2]; Table 4, watery note): 123.21 μg/l air; Type [2, 9]: TOP (perfuming compounds having a volatility ranging from 70,000 to 100 μg/l in air are referred to as “top notes”)
– | Top | 3752.17 | CCC/C=C/CO [(E)-2-HEXEN-1-OL] | 1.29E−01 | – | – | – | –
8.14 | – | – | CCC(=O)OC/C=C/c1ccccc1 [(E)-3-PHENYL-2-PROPENYL PROPANOATE] | – | Bottom | 1.28E−04 | 6.35E+04 | –
